In patent publication US12590100B2, “Tetrahydro-spiroindoline-pyrrolopyrrole-triones inhibitors of the NRF2-β-TrCP interaction for use in the treatment of fatty liver disease” (Universidad Autonoma De Madrid, priority 2021, dated 2026):

What was measured:
Format in all cases: cell-based, mouse
[1] = test system: NRF2; experiment: HO-1 induction in Nrf2−/− versus Nrf2+/+ MEFs
Procedure: FIG. 5. PHAR-mediated NRF2 activation is independent of KEAP1 and is responsible for the increase in the expression of its targets. (A-D) Serum-deprived MEFs originating from wild-type (WT) or KEAP1 null (Keap1−/−) mice were treated with 10 μM of PHAR for the indicated times. 0.1% DMSO was used as a vehicle. A), representative immunoblots of NRF2, HO1, KEAP1, LAMINB, and GAPDH as loading controls. B) and C), densitometric analysis of NRF2 and HO1 protein levels of the representative immunoblots of (A), expressed as a ratio of NRF2/LAMINB or HO1/GAPDH. The data is depicted as means±SEM (n=3). Statistical analysis was performed with two-way ANOVA followed by the Bonferroni test to check inter-group differences. D), the mRNA levels of Hmox-1, Nqo1, Aox1, Gc1c, and Gc1m were determined after 8 h of 10 μM PHAR by means of qRT-PCR and normalized by means of average Gapdh, Tbp, and β-actin. The data is depicted as mean±SEM (n=3). Statistical analysis was performed with two-way ANOVA followed by the Bonferroni test to check inter-group differences. *p<0.05; **p<0.01; ***p<0.001 vs. 0 of MEF-WT. (E-H), Serum-deprived MEFs from wild-type (WT) or NRF2 null (Nrf2−/−) mice were subjected to 10 μM of PHAR for the indicated times. 0.1% DMSO was used as a vehicle. E), representative immunoblots of NRF2, HO1, KEAP1, LAMINB, and GAPDH as loading controls. F) and G), densitometric analysis of NRF2 and HO1 protein levels of the representative immunoblots of (E), expressed as a ratio of NRF2/LAMINB or HO1/GAPDH. […] H), the mRNA levels of Hmox-1, Nqo1, Aox1, Gclc, and Gclm were determined after 8 h of 10 μM PHAR by means of qRT-PCR and normalized by means of average Gapdh, Tbp, and β-actin. […]
From a viewpoint of biopharmaceutical usefulness, it is important to determine if PHAR acts on KEAP1/NRF2 interaction, or if it represents, in contrast, a novel approach directed specifically at β-TrCP/NRF2 interaction. […] As an additional control, the HO-1 levels in MEFs originating from NRF2 knock-out (Nrf2^−/−) and wild-type (Nrf2^+/+) mice from the same litter were analyzed by immunoblot. […]

[2] = test system: β-TrCP-NRF2 interaction; experiment: NRF2 levels after LY294002 (PI3K inhibition, GSK-3β activation) in Keap1−/− MEFs; settings: PHAR 10 μM 1 h, then LY294002 20 μM 15-240 min
[3] = test system: peritoneal macrophages (Nrf2+/+); experiment: Inflammatory response in LPS-stimulated peritoneal macrophages from Nrf2+/+ mice; settings: PHAR 10 μM 8 h, LPS 100 ng/ml 4 h
Procedure: FIG. 8. PHAR reduces inflammatory response in peritoneal macrophages originating from Nrf2^+/+ mice but not in peritoneal macrophages originating from LPS-stimulated Nrf2-4KI mice. Peritoneal macrophages originating from wild-type (WT) and serum-deprived NRF2 knock-in (Nrf2-4Ki) mice were pretreated with 10 μM of PHAR for 8 h. 0.1% DMSO was used as a vehicle. After that period of time, the cells were treated with 100 ng/ml of LPS for 4 h. A), representative immunoblots originating from both cell types of NRF2, HO1, pre-IL1β, COX2, NOS2, and GAPDH as a loading control. B), densitometric analysis of NRF2 and HO1 protein levels of the representative immunoblots of (A), expressed as a ratio of protein/GAPDH levels. The data is depicted as means±SEM (n=3). Statistical analysis was performed with two-way ANOVA followed by the Bonferroni test to compare inter-group differences. *p<0.05; **p<0.01; ***p<0.001 vs. LPS. C), Densitometric analysis of pre-IL1b, COX2, and NOS2 protein levels of the representative immunoblots of (A), expressed as a ratio of protein/GAPDH levels. The data is depicted as means±SEM (n=3). […] D), the mRNA levels of Hmox1, Il1 β, Cox2, Nos2, Il6, and Tnfα were determined by means of qRT-PCR and normalized by means of average Gapdh, Thp, and β-actin. […]

[4] = test system: peritoneal macrophages (Nrf2-4KI); experiment: Inflammatory response in LPS-stimulated peritoneal macrophages from Nrf2-4KI mice; settings: Nrf2-4KI peritoneal macrophages, PHAR 10 μM 8 h
Procedure: FIG. 8. PHAR reduces inflammatory response in peritoneal macrophages originating from Nrf2^+/+ mice but not in peritoneal macrophages originating from LPS-stimulated Nrf2-4KI mice. Peritoneal macrophages originating from wild-type (WT) and serum-deprived NRF2 knock-in (Nrf2-4Ki) mice were pretreated with 10 μM of PHAR for 8 h. 0.1% DMSO was used as a vehicle. After that period of time, the cells were treated with 100 ng/ml of LPS for 4 h. A), representative immunoblots originating from both cell types of NRF2, HO1, pre-IL1β, COX2, NOS2, and GAPDH as a loading control. B), densitometric analysis of NRF2 and HO1 protein levels of the representative immunoblots of (A), expressed as a ratio of protein/GAPDH levels. The data is depicted as means±SEM (n=3). Statistical analysis was performed with two-way ANOVA followed by the Bonferroni test to compare inter-group differences. *p<0.05; **p<0.01; ***p<0.001 vs. LPS. C), Densitometric analysis of pre-IL1b, COX2, and NOS2 protein levels of the representative immunoblots of (A), expressed as a ratio of protein/GAPDH levels. The data is depicted as means±SEM (n=3). Statistical analysis was performed with two-way ANOVA followed by the Bonferroni test to compare inter-group differences. *p<0.05; **p<0.01; ***p<0.001 vs. LPS. D), the mRNA levels of Hmox1, Il1 β, Cox2, Nos2, Il6, and Tnfα were determined by means of qRT-PCR and normalized by means of average Gapdh, Thp, and β-actin. The data is depicted as mean±SEM (n=3). Statistical analysis was performed with two-way ANOVA followed by the Bonferroni test to check inter-group differences. *p<0.05; **p<0.01; ***p<0.001 vs. LPS.
As a complementary approach, peritoneal macrophages extracted from Nrf2^+/+ mice and knock-in mice generated in the laboratory having 4 serines substituted with alanines in critical positions for phosphorylation by priming kinase/priming kinases and by GSK-3β (Serines 335, 338, 342, and 347) were used. Both cell types were pretreated with DMSO or PHAR (10 μM, 8 h) and then stimulated with LPS (100 ng/ml, 4 h). […]

O=C1[C@@H]2[C@H](Cc3c[nH]c4ccccc34)N[C@]3(C(=O)Nc4ccc(Cl)cc43)[C@@H]2C(=O)N1c1ccc2c(c1)OCCO2 [PHAR]
HO-1 increase in MEFs from Nrf2−/− mice ([1]; PHAR 10 μM, 2, 4, 8 h): not observed | HO-1 levels in MEFs from Nrf2+/+ mice ([1]; PHAR 10 μM, 2, 4, 8 h): significant increase in HO-1 | mRNA levels of NRF2 targets in Nrf2+/+ and Nrf2−/− MEFs ([1]; PHAR 10 μM, 8 h): The same result was obtained | NRF2 levels under LY294002 after PHAR pre-treatment [2]: prevented LY294002-induced NRF2 degradation, but furthermore favored NRF2 accumulation | NRF2 and HO-1 protein levels [3]: significant increase in NRF2 and HO-1 protein levels | production of inflammatory markers, protein (pre-IL1β, COX2, NOS2) and mRNA (Il1β, Cox2, Nos2, Il6, Tnfα) [3]: significantly lower | HO-1 induction [4]: the same HO-1 induction | NRF2 induction [4]: considerably lower | protective effect against the inflammatory response ([4]; LPS 100 ng/ml 4 h): lost in almost all the inflammatory markers analyzed
